From patent publication US11555036B2, “FGFR4 inhibitor, preparation method therefor and pharmaceutical use thereof” (Abbisko Therapeutics Co., Ltd., priority 2016, dated 2023)

How the values were obtained:
FGFR4 = FGFR4 (Homo sapiens, UniProt P22455); assay: FGFR4 Caliper Assay (in vitro biochemical kinase analysis of FGFR4); settings: read-out: Enzymatic activity FGFR4 IC50
Summary of the method: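 Kinase reaction at 30° C for 40 min in 50 mM HEPES pH 7.5, 16 mM MgCl2, 1 mM DTT, 0.6% DMSO, stopped with EDTA. Phosphorylated and unphosphorylated fluorescent peptides separated by Caliper microfluidic mobility shift. IC50 by non-linear regression of percent inhibition.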

[1] = tested on: Huh7 hepatocellular carcinoma cells; assay: FGFR4 cell proliferation experiment, Cell Titer Glo (CTG); assay type: cell-based; settings: Homo sapiens, Huh-7, 72 h, HuH-7 cells, 3 days; for IC50: concentration leading to absolute half growth inhibition; for EC50: concentration leading to half maximal growth inhibition
Summary of the method: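 Cells treated with 5-fold serial dilutions starting at 10 μM for 3 days at 37° C, 5% CO2. Proliferation/survival quantified as cellular ATP by CellTiter-Glo luminescence.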

Sequence of FGFR4 (P22455 22-802): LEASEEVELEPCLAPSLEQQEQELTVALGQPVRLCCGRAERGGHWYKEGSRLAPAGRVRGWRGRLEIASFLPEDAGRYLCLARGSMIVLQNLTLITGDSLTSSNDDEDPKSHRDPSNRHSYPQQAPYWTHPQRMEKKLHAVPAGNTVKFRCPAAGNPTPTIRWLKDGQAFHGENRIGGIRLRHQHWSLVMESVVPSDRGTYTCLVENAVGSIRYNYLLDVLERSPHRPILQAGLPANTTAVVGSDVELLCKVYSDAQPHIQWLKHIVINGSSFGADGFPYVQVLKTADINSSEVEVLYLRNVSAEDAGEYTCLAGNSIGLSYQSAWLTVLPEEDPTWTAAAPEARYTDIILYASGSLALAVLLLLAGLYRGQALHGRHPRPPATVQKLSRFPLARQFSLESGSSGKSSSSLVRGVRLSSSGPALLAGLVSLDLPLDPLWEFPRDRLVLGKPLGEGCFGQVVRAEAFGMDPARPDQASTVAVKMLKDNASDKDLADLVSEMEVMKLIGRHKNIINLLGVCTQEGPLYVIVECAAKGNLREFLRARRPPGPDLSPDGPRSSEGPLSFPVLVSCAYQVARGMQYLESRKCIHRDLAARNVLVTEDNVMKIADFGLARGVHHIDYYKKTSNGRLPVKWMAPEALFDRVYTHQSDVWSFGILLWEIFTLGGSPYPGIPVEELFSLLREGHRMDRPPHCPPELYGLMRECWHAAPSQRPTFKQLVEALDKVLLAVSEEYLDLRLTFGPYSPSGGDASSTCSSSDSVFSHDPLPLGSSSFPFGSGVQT

| IC50 (FGFR4) [µM] | IC50 [1] [µM] | EC50 [1] [µM] | Compound |
| --- | --- | --- | --- |
| 0.0053 | 0.0099 | 0.0079 | C=CC(=O)N[C@H]1CCOC[C@H]1Nc1ncc2cc(-c3c(F)c(OC)cc(OC)c3F)nc(N3CC(C)(O)C3)c2n1 [Example 793, N-((3S,4S)-3-((6-(2,6-difluoro-3,5-dimethoxyphenyl)-8-(3-hydroxy-3-methylazetidin-1-yl)pyrido[3,4-d]py-rimidin-2-yl)amino)tetrahydro-2H-pyran-4-yl)acrylamide] |
| 0.019 | 0.212 | 0.13 | C=CC(=O)N[C@H]1COC[C@H]1Nc1ncc2cc(-c3c(Cl)c(OC)cc(OC)c3Cl)nc(Cl)c2n1 [Example 753, N-((3R,4S)-4-((8-chloro-6-(2,6-di-chloro-3,5-dimethoxyphenyl)py-rido[3,4-d]pyrimidin-2-yl)amino)tetrahydro-furan-3-yl)acrylamide] |
| 0.991 | 2.63 | 1.71 | C=CC(=O)N[C@H]1COC[C@H]1Nc1cc2c(NC)nc(-c3c(Cl)c(OC)cc(OC)c3Cl)nc2cn1 [Example 752, N-((3R,4S)-4-((2-(2,6-dichloro-3,5-dimethoxyphenyl)-4-(methylamino)pyrido [3,4-d]pyrimidin-6-yl)amino)tetrahydro-furan-3-yl)acrylamide] |
| 0.0065 | 0.0133 | 0.0096 | C=CC(=O)N[C@H]1COC[C@H]1Nc1ncc2cc(-c3c(Cl)c(OC)cc(OC)c3Cl)nc(N3CCC3)c2n1 [Example 657, N-((3R,4S)-4-((8-(azetidin-1-yl)-6-(2,6-dichloro-3,5-dimethoxyphenyl)py-rido[3,4-d]pyrimidin-2-yl)amino)tetra-hydrofuran-3-yl)acrylamide] |
| 0.0533 | 0.269 | 0.0542 | C=CC(=O)Nc1cn(C)nc1Nc1ncc2cc(-c3c(Cl)c(OC)cc(OC)c3Cl)ncc2n1 [Example 64, N-(3-((6-(2,6-dichloro-3,5-dimethoxyphenyl)pyrido[3,4-d]pyrimidin-2-yl)amino)-1-methyl-1H-pyrazol-4-yl) acrylamide] |
| 0.0261 | > 10 | > 10 | C=CC(=O)Nc1cccc(C)c1Nc1cc2c(=O)[nH]c(-c3c(Cl)c(OC)cc(OC)c3Cl)nc2cn1 [Example 5, N-(2-((2-(2,6-dichloro-3,5-dimethoxyphenyl)-4-oxo-3,4-dihydropyrido[3,4-d]pyrimidin-6-yl)amino)-3-methyl-phenyl)acrylamide] |
| 0.0048 | 0.012 | 0.01 | C=CC(=O)N[C@H]1COC[C@H]1Nc1ncc2cc(-c3c(F)c(OC)cc(OC)c3F)nc(N3CCC(OC)CC3)c2n1 [Example 694, N-((3R,4S)-4-((6-(2,6-difluoro-3,5-dimethoxyphenyl)-8-(4-methoxypiper-idin-1-yl)pyrido[3,4-d]pyrimidin-2-yl)amino)tetrahydrofuran-3-yl)acryl-amide] |
| 0.0317 | 0.348 | 0.098 | C=CC(=O)N[C@H]1COC[C@H]1Nc1ncc2cc(-c3c(Cl)c(OC)cc(OC)c3Cl)nc(OC)c2n1 [Example 423, N-((3R,4S)-4-((6-(2,6-dichloro-3,5-di-methoxyphenyl)-8-methoxypyrido[3,4-d]pyrimidin-2-yl)amino)tetrahydro-furan-3-yl)acrylamide] |
| 0.0124 | 0.01 | 0.0054 | C=CC(=O)N[C@H]1COC[C@H]1Nc1ncc2cc(-c3c(Cl)c(OC)cc(OC)c3Cl)nc(NCC3CC3)c2n1 [Example 421, N-((3R,4S)-4-((8-((cyclopropylmethyl)amino)-6-(2,6-dichloro-3,5-dimethoxyphenyl)pyrido[3,4-d]pyrimidin-2-yl)amino)tetrahydrofuran-3-yl)acrylamide] |
| 0.0139 | 2.45 | 1.53 | C=CC(=O)Nc1cccc(C)c1Nc1cc2c(=O)n(C)c(-c3c(Cl)c(OC)cc(OC)c3Cl)cc2cn1 [Example 1, N-(2-((7-(2,6-dichloro-3,5-dimethoxyphenyl)-6-methyl-5-oxo-5,6-dihydro-2,6-naphthyridin-3-yl)amino)-3-methylphenyl)acrylamide] |
